Test results reported in PubChem BioAssay AID2060904 (Molecular Pharmacology Branch, DTP, NCI, 2025).

Tested on: 349418-098-R-PDC complex spheroid viability
Assay: Anticancer human tumor 349418-098-R-PDC patient-derived lung adenocarcinoma cell line growth inhibition [RAS]
Settings: for viability, T/C: stronger effect = lower value
Source text: RAS pathway inhibitors in Combinations in Complex Spheroids
A high-throughput screen of multi-cell type tumor spheroids was designed to identify active combinations of RAS pathway inhibitors and targeted small molecules. Complex spheroids include a stromal component modeled by human endothelial cells (HUVEC) and fibroblasts modeled by human mesenchymal stem cells (MSCs). The concentration ranges selected for each drug and investigational agent were based upon clinically achievable concentrations if the clinical Cmax of the agent was known.
Compounds. The drugs and investigational agents: abemaciclib (NSC768073), cobimetinib (NSC768068), divarasib (GDC6063, NSC841802), docetaxel (NSC628503), GDC-1971 (RLY-1971, NSC841576), gemcitabine (NSC613327), inavolisib (NSC800729), ipatasertib (NSC767898), KB-0742 (NSC834161), MRTX-1133 (NSC836407), osimertinib (NSC779217), RMC-4630 (NSC839698), RMC-6236 (NSC851965), RMC-6291 (NSC852671), Ro-3306 (NSC812927), sapanisertib (NSC764658), SN-38 (NSC673596), staurosporine (NSC755774), SY5609 (NSC837396), and tovorafenib (DAY101, NSC766906), were obtained from the National Cancer Institute (NCI) Developmental Therapeutics Program Chemical Repository. The FDA-approved anticancer drug set is available from the NCI Developmental Therapeutics Program. […] The stock solutions were prepared in dimethyl sulfoxide (DMSO, Sigma-Aldrich, St. Louis, MO, cat. D2650) at 800-fold the tested concentration and stored at -70 degrees C prior to their use. All drugs and investigational agents were tested over a range starting from a high concentration at or near the clinical Cmax and decreasing in half-log increments. If the clinical Cmax for an agent had not been determined, the highest concentration tested was 10 microM.
Cell Culture. All cells were maintained in an incubator at 37 degrees C and 5% CO2 with 95% humidity. The PDC lines were cultured according to standard operating procedures established by the NCI PDMR. All PDCs were thawed and cultured in Matrigel-coated flasks prepared with a working solution of 1X Ham's F-12 nutrient mix, without supplementation (Invitrogen, Waltham, MA, cat. 11765054), 100 U/mL penicillin-streptomycin (Invitrogen, cat. 15140122), and 2.5% Matrigel (Corning Inc., Corning, NY, cat. 354248) for the first three passages. The 362531-283-R-J2-PDC and 782815-120-R-J1-PDC lines were cultured in 6C/Colon 1B media, which includes advanced DMEM/F-12 (Thermo Fisher Scientific, cat. 12634028), 10 mM HEPES (Thermo Fisher Scientific, cat. 15630080), 1X GlutaMAX supplement (Thermo Fisher Scientific, cat. 35050061), 0.1 mg/mL primocin (InvivoGen, San Diego, CA, cat. ant-pm-2), 10% defined fetal bovine serum, heat inactivated (HyClone Laboratories Inc., Logan, UT, cat. SH30070.03HI), 50% L-WRN conditioned media (ATCC, cat. CRL-3276), 1.25 mM N-Acetyl-L-cysteine (Sigma-Aldrich, cat. A9165), 10 mM nicotinamide (Sigma-Aldrich, cat. N0636), 1X B-27 supplement (Thermo Fisher Scientific, cat. 17504044), 1X N-2 supplement (Thermo Fisher Scientific, cat. 17502048), 50 ng/mL human EGF (Thermo Fisher Scientific, cat. PHG0311), and 10 microM Y-27632 dihydrochloride (Tocris Bioscience, cat. 1254). The K12877-001-R-J1-PDC line was cultured in 6I media, which includes all 6C/Colon 1B media plus 10 ng/mL human FGF-10 (PeproTech, cat. 100-26), 1 ng/mL human FGF-2 (PeproTech, cat. 100-18B), 1 µM prostaglandin E2 (Tocris Bioscience, cat. 2296), […] hydrocortisone (Sigma-Aldrich, cat. H4001), and […] bovine insulin (Sigma-Aldrich, cat. I6634). The K86415-001-R-J1-PDC line was cultured in 6D media, which includes all 6C/Colon 1B media components minus the L-WRN conditioned media. The 485176-168-R4-J1-PDC was cultured in PANC media, which includes all 6C/Colon 1B media plus 100 ng/mL human FGF-10 (PeproTech, cat. 100-26), 500 nM SB-431542 (Selleckchem, cat. S1067), and 10 nM gastrin (Tocris Bioscience, cat. 3006). […]

[1] = curve of first compound, second compound 0.0316 µM
[2] = curve of first compound, second compound 0.1 µM
[3] = curve of first compound, second compound 0.316 µM
[4] = curve of first compound, second compound 1 µM
[5] = second compound 0.0316 µM, first compound 0.0316 µM
[6] = second compound 0.0316 µM, first compound 0.1 µM
[7] = second compound 0.0316 µM, first compound 0.316 µM
[8] = second compound 0.0316 µM, first compound 1 µM
[9] = second compound 0.1 µM, first compound 0.0316 µM
[10] = second compound 0.1 µM, first compound 0.1 µM
[11] = second compound 0.1 µM, first compound 0.316 µM
[12] = second compound 0.1 µM, first compound 1 µM
[13] = second compound 0.316 µM, first compound 0.0316 µM
[14] = second compound 0.316 µM, first compound 0.1 µM
[15] = second compound 0.316 µM, first compound 0.316 µM
[16] = second compound 0.316 µM, first compound 1 µM
[17] = second compound 1 µM, first compound 0.0316 µM
[18] = second compound 1 µM, first compound 0.1 µM
[19] = second compound 1 µM, first compound 0.316 µM
[20] = second compound 1 µM, first compound 1 µM
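Also: spheroids exposed to compound for seven days before viability readout.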

## Nc1ccn(C2OC(CO)C(O)C2(F)F)c(=O)n1 (stereo unspecified) + C=CC(=O)N1CCN(c2nc(OCC3CCCN3C)nc3c(F)c(-c4nc(N)cc(C)c4C(F)(F)F)c(Cl)cc23)C(C)C1
Curve of first compound, second compound 0.00316 µM
  IC50: < 0.00316 µM
Curve of first compound, second compound 0.01 µM
  IC50: < 0.00316 µM
[1]
  IC50: < 0.00316 µM
[2]
  IC50: < 0.00316 µM
[3]
  IC50: < 0.00316 µM
[4]
  IC50: < 0.00316 µM
Second compound 0.00316 µM, first compound 0.00316 µM
  viability, T/C: 21.5%
Second compound 0.00316 µM, first compound 0.01 µM
  viability, T/C: 7.36%
Second compound 0.00316 µM, first compound 0.0316 µM
  viability, T/C: 6.2%
Second compound 0.00316 µM, first compound 0.1 µM
  viability, T/C: 4.92%
Second compound 0.00316 µM, first compound 0.316 µM
  viability, T/C: 5.23%
Second compound 0.00316 µM, first compound 1 µM
  viability, T/C: 5.62%
Second compound 0.01 µM, first compound 0.00316 µM
  viability, T/C: 17%
Second compound 0.01 µM, first compound 0.01 µM
  viability, T/C: 6.27%
Second compound 0.01 µM, first compound 0.0316 µM
  viability, T/C: 5.91%
Second compound 0.01 µM, first compound 0.1 µM
  viability, T/C: 5.09%
Second compound 0.01 µM, first compound 0.316 µM
  viability, T/C: 5.47%
Second compound 0.01 µM, first compound 1 µM
  viability, T/C: 5.2%
Second compound 0.0316 µM, first compound 0.00316 µM
  viability, T/C: 21.6%
Second compound 0.0316 µM, first compound 0.01 µM
  viability, T/C: 6.92%
[5]
  viability, T/C: 6.95%
[6]
  viability, T/C: 5.38%
[7]
  viability, T/C: 5.08%
[8]
  viability, T/C: 4.96%
Second compound 0.1 µM, first compound 0.00316 µM
  viability, T/C: 22.6%
Second compound 0.1 µM, first compound 0.01 µM
  viability, T/C: 6.48%
[9]
  viability, T/C: 4.56%
[10]
  viability, T/C: 4.77%
[11]
  viability, T/C: 4.97%
[12]
  viability, T/C: 4.84%
Second compound 0.316 µM, first compound 0.00316 µM
  viability, T/C: 19.2%
Second compound 0.316 µM, first compound 0.01 µM
  viability, T/C: 8.3%
[13]
  viability, T/C: 4.99%
[14]
  viability, T/C: 5.68%
[15]
  viability, T/C: 6.7%
[16]
  viability, T/C: 4.81%
Second compound 1 µM, first compound 0.00316 µM
  viability, T/C: 22.9%
Second compound 1 µM, first compound 0.01 µM
  viability, T/C: 6.24%
[17]
  viability, T/C: 4.96%
[18]
  viability, T/C: 6.96%
[19]
  viability, T/C: 7.44%
[20]
  viability, T/C: 5.82%

## CC(Nc1ccc2c(c1)OCCn1cc(N3C(=O)OCC3C(F)F)nc1-2)C(N)=O (stereo unspecified) + C#Cc1c(F)ccc2cc(O)cc(-c3ncc4c(N5CC6CCC(C5)N6)nc(OCC56CCCN5CC(F)C6)nc4c3F)c12
[1]
  IC50: 0.09 µM
[2]
  IC50: 0.0917 µM
[3]
  IC50: 0.07 µM
[4]
  IC50: 0.0442 µM
Curve of first compound, second compound 3.16 µM
  IC50: 0.071 µM
Curve of first compound, second compound 10 µM
  IC50: < 0.0316 µM
[5]
  viability, T/C: 78.3%
[6]
  viability, T/C: 43.2%
[7]
  viability, T/C: 37.1%
[8]
  viability, T/C: 11.6%
Second compound 0.0316 µM, first compound 3.16 µM
  viability, T/C: 11.7%
Second compound 0.0316 µM, first compound 10 µM
  viability, T/C: 11.8%
[9]
  viability, T/C: 80.4%
[10]
  viability, T/C: 39.4%
[11]
  viability, T/C: 39.1%
[12]
  viability, T/C: 19.9%
Second compound 0.1 µM, first compound 3.16 µM
  viability, T/C: 12.7%
Second compound 0.1 µM, first compound 10 µM
  viability, T/C: 11.2%
[13]
  viability, T/C: 71%
[14]
  viability, T/C: 39.7%
[15]
  viability, T/C: 26.8%
[16]
  viability, T/C: 16.9%
Second compound 0.316 µM, first compound 3.16 µM
  viability, T/C: 15.3%
Second compound 0.316 µM, first compound 10 µM
  viability, T/C: 13.7%
[17]
  viability, T/C: 51.8%
[18]
  viability, T/C: 45.9%
[19]
  viability, T/C: 25.5%
[20]
  viability, T/C: 12.4%
Second compound 1 µM, first compound 3.16 µM
  viability, T/C: 16.2%
Second compound 1 µM, first compound 10 µM
  viability, T/C: 10.6%
Second compound 3.16 µM, first compound 0.0316 µM
  viability, T/C: 63.5%
Second compound 3.16 µM, first compound 0.1 µM
  viability, T/C: 42.7%
Second compound 3.16 µM, first compound 0.316 µM
  viability, T/C: 30.5%
Second compound 3.16 µM, first compound 1 µM
  viability, T/C: 12.9%
Second compound 3.16 µM, first compound 3.16 µM
  viability, T/C: 12.8%
Second compound 3.16 µM, first compound 10 µM
  viability, T/C: 13.5%
Second compound 10 µM, first compound 0.0316 µM
  viability, T/C: 35.9%
Second compound 10 µM, first compound 0.1 µM
  viability, T/C: 28.3%
Second compound 10 µM, first compound 0.316 µM
  viability, T/C: 9.51%
Second compound 10 µM, first compound 1 µM
  viability, T/C: 4.69%
Second compound 10 µM, first compound 3.16 µM
  viability, T/C: 5.91%
Second compound 10 µM, first compound 10 µM
  viability, T/C: 2.82%

## CC1(O)CCCC1n1c(=O)c(C(F)F)cc2cnc(NC3CCN(S(C)(=O)=O)CC3)nc21 (stereo unspecified)
Compound 0.0316 µM
  viability, T/C: 79.5% [middle of 4 runs]
Compound 0.1 µM
  viability, T/C: 43% [middle of 4 runs]
Compound 0.316 µM
  viability, T/C: 26.1% [middle of 4 runs]
Compound 1 µM
  viability, T/C: 22.1% [middle of 4 runs]
Compound 3.16 µM
  viability, T/C: 19.5% [middle of 4 runs]
Compound 10 µM
  viability, T/C: 2.67% [middle of 4 runs]
Curve of compound
  IC50: 87.8 nM [middle of 4 runs]
